16 compounds from patent publication US5621133A (priority 1995, dated 1997) can be followed below.

Assay [1] concerns dopamine D-1 receptor. The note with it: for Intrinsic Activity (adenylate cyclase assay): dopamine = 100, goldfish retina or rat striatum; for EC50: read-out: EC50 (agonist activity in adenylate cyclase assay), tissue from goldfish retina or rat striatum.
Protocol: In order to determine agonist activity, cell-free tissue homogenates are incubated in an ionic buffer solution containing ATP and the compound being evaluated. The tissue was obtained from either goldfish retina or rat striatum.
The target in another assay is dopamine D-2 receptor (Rattus norvegicus, UniProt P61169). The assay is described as follows: biochemical. The class given is binding. The note with it: rat caudate, [125I]-p-aminophenylethyl spiroperidol; read-out: D-2 Ki. As to the method:
Homogenized rat caudate was the source of the D-2 receptors. […] The molar affinity of the compound for the receptor binding site was calculated by the same method used for the D-1 receptor assay, assuming a competitive interaction between the compound and the radiolabeled ligand.

Assay [2] has as its target dopamine D-1 receptor (Rattus norvegicus, UniProt P18901). Nature of the assay: biochemical. The note with it: D-1 Ki, rat caudate, [125I]SCH-23982.
Description: The compounds compete with the radiolabeled ligand for occupancy of the receptors and the molar potency of each compound was quantified.
The Ki values are inversely proportional to the affinity of the compound for the receptor.

Chain of dopamine D-1 receptor (Rattus norvegicus, UniProt P18901) (P18901 whole entry): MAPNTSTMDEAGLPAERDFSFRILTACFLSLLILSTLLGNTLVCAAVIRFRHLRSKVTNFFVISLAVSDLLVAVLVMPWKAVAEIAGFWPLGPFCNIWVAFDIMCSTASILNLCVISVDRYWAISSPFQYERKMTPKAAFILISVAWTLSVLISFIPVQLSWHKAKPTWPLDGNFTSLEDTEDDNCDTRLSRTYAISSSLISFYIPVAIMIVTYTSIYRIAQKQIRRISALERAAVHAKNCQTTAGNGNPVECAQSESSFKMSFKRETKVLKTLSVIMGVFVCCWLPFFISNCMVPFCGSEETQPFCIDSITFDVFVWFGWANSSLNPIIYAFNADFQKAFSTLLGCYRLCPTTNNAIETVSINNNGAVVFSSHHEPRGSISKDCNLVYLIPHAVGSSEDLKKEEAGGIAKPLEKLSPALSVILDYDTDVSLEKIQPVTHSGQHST
Chain of dopamine D-2 receptor (P61169 whole entry): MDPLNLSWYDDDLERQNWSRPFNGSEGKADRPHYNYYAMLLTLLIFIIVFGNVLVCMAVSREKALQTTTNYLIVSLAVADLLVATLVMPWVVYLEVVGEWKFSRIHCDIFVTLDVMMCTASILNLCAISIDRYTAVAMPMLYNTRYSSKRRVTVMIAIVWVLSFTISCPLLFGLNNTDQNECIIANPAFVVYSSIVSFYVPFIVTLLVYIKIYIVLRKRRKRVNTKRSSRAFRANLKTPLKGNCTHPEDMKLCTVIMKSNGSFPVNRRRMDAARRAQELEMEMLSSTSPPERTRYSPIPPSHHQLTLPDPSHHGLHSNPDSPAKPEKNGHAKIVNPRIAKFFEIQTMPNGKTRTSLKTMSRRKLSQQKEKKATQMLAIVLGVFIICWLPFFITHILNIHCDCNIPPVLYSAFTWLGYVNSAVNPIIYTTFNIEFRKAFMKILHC

As usually defined, the EC50 is the concentration needed to bring the measured effect to its halfway point. As a reminder, the Ki is the equilibrium dissociation constant of an inhibitor or competing ligand from its target. On to `CCCC(=O)Oc1ccc2c(c1OC(=O)CCC)CC(c1ccccc1)C=C2CN` (stereo not drawn) [Example 17], for which, in the assay on dopamine D-1 receptor [1], the “Intrinsic Activity (adenylate cyclase assay)” value (“Intrinsic Activity” below) amounted to 42 and the EC50 was 2800 nM. The Ki at dopamine D-2 receptor was above 10000 nM. The same compound registered a Ki at dopamine D-1 receptor [2] of 800 nM.

As for `CC(C)C(=O)Oc1ccc2c(c1OC(=O)C(C)C)CC(c1ccccc1)C=C2CN` (stereo not drawn) [Example 18], in the assay with dopamine D-1 receptor [1], the “Intrinsic Activity” value came out at 46 and the EC50 is 1500 nM. In addition, the Ki at dopamine D-2 receptor is above 10000 nM. At dopamine D-1 receptor [2], this compound displayed a Ki of 1300 nM.

For the compound `CCC(=O)Oc1ccc2c(c1OC(=O)CC)CC(c1ccccc1)C=C2CN` (stereo not drawn) [Example 20], in the assay on dopamine D-1 receptor [1], the “Intrinsic Activity” value amounted to 80. In addition, on dopamine D-1 receptor [1], the EC50 is 500 nM. The Ki was above 10000 nM at dopamine D-2 receptor and 1900 nM on dopamine D-1 receptor [2].

As for `COC(=O)Oc1ccc2c(c1OC(=O)OC)CC(c1ccccc1)C=C2CN` (stereo not drawn) [Example 23], in the assay with dopamine D-1 receptor [1], the “Intrinsic Activity” value was determined as 65 and the EC50 worked out at 1100 nM. Besides, at dopamine D-2 receptor, the Ki was above 10000 nM. The same compound gave a Ki on dopamine D-1 receptor [2] of 500 nM.

In the case of `NCCC(=O)Oc1ccc2c(c1OC(=O)CCN)CC(c1ccccc1)C=C2CN` (stereo not drawn) [Example 27], the EC50 on dopamine D-1 receptor [1] was found to be 200 nM. Further, the Ki at dopamine D-2 receptor is 6600 nM; on dopamine D-1 receptor [2] it was above 10000 nM.

`CCOC(=O)Oc1ccc2c(c1OC(=O)OCC)CC(c1ccccc1)C=C2CN` (stereo not drawn) [Example 29]: in the assay with dopamine D-1 receptor [1], the “Intrinsic Activity” value came to 54 and the EC50 stood at 1000 nM. Moreover, the Ki on dopamine D-2 receptor is above 10000 nM. The compound further registered a Ki at dopamine D-1 receptor [2] of 6000 nM.

As for `NCC1=CC(c2cccc(O)c2)Cc2c1ccc(O)c2O` (stereo not drawn) [Example 38], in the assay with dopamine D-1 receptor [1], the “Intrinsic Activity” value is listed as 91 and the EC50 is 33 nM. Besides, the Ki at dopamine D-2 receptor is 30000 nM. Further, the Ki on dopamine D-1 receptor [2] turned out to be 120 nM.

As for `NCC1=CC(c2ccc(O)cc2)Cc2c1ccc(O)c2O` (stereo not drawn) [Example 39], in the assay on dopamine D-1 receptor [1], the “Intrinsic Activity” value is given as 84 and the EC50 came out at 50 nM. Also, on dopamine D-2 receptor, the Ki is above 10000 nM. Besides, affinity on dopamine D-1 receptor [2] was put at a Ki of 1400 nM.

Regarding `NCC1=CC(c2ccc3ccccc3c2)Cc2c1ccc(O)c2O` (stereo not drawn) [Example 40], in the assay on dopamine D-1 receptor [1], the “Intrinsic Activity” value came to 86 and the EC50 was found to be 1100 nM. Further, at dopamine D-2 receptor, the Ki worked out at 27000 nM. The compound also gave a Ki on dopamine D-1 receptor [2] of 5000 nM.

On to `NCC1=CC(c2cccc3ccccc23)Cc2c1ccc(O)c2O` (stereo not drawn) [Example 41], for which the “Intrinsic Activity” value in the assay with dopamine D-1 receptor [1] is 81. Besides, at dopamine D-1 receptor [1], the EC50 came out at 1800 nM. The Ki at dopamine D-2 receptor stood at 2500 nM; on dopamine D-1 receptor [2], 700 nM.

As for `Cl.NCc1cc(-c2ccccc2)cc2c(O)c(O)ccc12` [Example 46, 1-Aminomethyl-5,6-dihydroxy-3-phenylnaphthalene Hydrochloride], the “Intrinsic Activity” value in the assay with dopamine D-1 receptor [1] was found to be 69. For the same compound, the EC50 at dopamine D-1 receptor [1] amounted to 220 nM. The Ki on dopamine D-2 receptor is above 10000 nM; at dopamine D-1 receptor [2], 1700 nM.

With `NCC1OC2(CCCCC2)Cc2c1ccc(O)c2O` (stereo not drawn) [Example 52], in the assay with dopamine D-1 receptor [1], the “Intrinsic Activity” value amounted to 65 and the EC50 stood at 71 nM. Also, the Ki at dopamine D-2 receptor worked out at 6200 nM. The compound further registered an inhibition constant (Ki) on dopamine D-1 receptor [2] of 900 nM.

In the case of `CCC(C)C(C)[C@@H]1Cc2c(ccc(O)c2O)[C@H](CN)O1` (stereo partly drawn) [Example 72], the “Intrinsic Activity” value in the assay on dopamine D-1 receptor [1] is listed as 80. Also, at dopamine D-1 receptor [1], the EC50 stood at 170 nM. The Ki is 8200 nM at dopamine D-2 receptor and 15 nM on dopamine D-1 receptor [2].

For `CC(C)=CCCC(C)[C@@H]1Cc2c(ccc(O)c2O)[C@H](CN)O1` (stereo partly drawn) [Example 74], in the assay with dopamine D-1 receptor [1], the “Intrinsic Activity” value is 105 and the EC50 was 840 nM. The Ki at dopamine D-2 receptor is 2000 nM. At dopamine D-1 receptor [2], the Ki was 100 nM.

`NCC1OC2(CCCCCCC2)Cc2c1ccc(O)c2O` (stereo not drawn) [Example 94]: in the assay on dopamine D-1 receptor [1], the “Intrinsic Activity” value was found to be 110 and the EC50 is 71 nM. Also, at dopamine D-2 receptor, the Ki was above 10000 nM. This compound also registered a Ki at dopamine D-1 receptor [2] of 84 nM.

On to `NCC1OC2(CCOCC2)Cc2c1ccc(O)c2O` (stereo not drawn) [Example 95], for which the “Intrinsic Activity” value with dopamine D-1 receptor [1] is given as 104. Moreover, the EC50 on dopamine D-1 receptor [1] was found to be 100 nM. Also, the Ki at dopamine D-2 receptor was above 10000 nM; at dopamine D-1 receptor [2] it was 520 nM.
